# Data as given in patent US20260207572A1, “METHODS AND COMPOSITIONS FOR TREATMENT OF SUBJECTS WITH HEPATIC IMPAIRMENTS” (ELEVAR THERAPEUTICS, INC., priority 2022, published 2026).
# Like-named read-outs stand apart in the source and are kept apart here.
# Tests used:
# CYP3A4 = CYP3A4 (Homo sapiens, UniProt P08684); test: In vitro CYP phenotyping and metabolism study, recombinant CYP3A4; format: in vitro ADME
# Description: (§1) Recently, an in vitro cytochrome (CYP) phenotyping and metabolism study was performed.
# plasma protein [1] = test: Phase 1 study: unbound plasma concentration and fraction unbound (protein binding); format: in vivo, human; conditions: 4 h, 200 mg single oral dose; for fraction unbound at 4 h: human, plasma, po, 200 mg, read-out: Fraction Unbound, Arithmetic Mean
# [2] = as above; format: in vivo, human; conditions: human, plasma, po, 200 mg, 200 mg single oral dose
# CYP2B6 = target: T1, CYP2B6 (Homo sapiens, UniProt P20813); test: In vitro CYP phenotyping and metabolism study, recombinant CYP2B6; format: in vitro ADME
# T1 sequence (P20813 1-491): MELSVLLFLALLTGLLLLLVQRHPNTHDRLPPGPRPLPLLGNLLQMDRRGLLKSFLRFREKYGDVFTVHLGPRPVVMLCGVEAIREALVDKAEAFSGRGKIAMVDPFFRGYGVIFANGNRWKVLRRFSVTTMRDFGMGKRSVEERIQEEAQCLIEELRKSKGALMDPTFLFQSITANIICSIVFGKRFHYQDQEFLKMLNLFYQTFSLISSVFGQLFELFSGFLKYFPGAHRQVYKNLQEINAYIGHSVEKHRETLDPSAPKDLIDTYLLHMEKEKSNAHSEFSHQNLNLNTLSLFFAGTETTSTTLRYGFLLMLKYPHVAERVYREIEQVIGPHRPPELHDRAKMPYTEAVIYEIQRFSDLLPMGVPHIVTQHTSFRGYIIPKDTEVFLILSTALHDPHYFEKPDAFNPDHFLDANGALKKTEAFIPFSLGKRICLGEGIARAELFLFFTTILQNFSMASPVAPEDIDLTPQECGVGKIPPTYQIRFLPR
# Description: as §1
# [3] = Phase 1 study: safety and tolerability; format: in vivo, human
# Excerpt: Safety was monitored through recording of adverse events (AEs), clinical laboratory evaluations (clinical chemistry, hematology, coagulation parameters, and urinalysis), vital sign measurements, 12-lead electrocardiograms (ECGs), and physical examination findings during the study.
# Safety measures for this study included AEs, incidence of laboratory abnormalities (based on hematology, clinical chemistry, coagulation, and urinalysis test results), 12-lead ECG parameters, vital sign measurements, and physical examinations.
# All adverse events and observed values from clinical laboratory evaluations, 12-lead ECGs, vital sign measurements, and physical examinations were listed and summarized descriptively. No inferential statistical analyses were planned for the safety data.
# The condition of each subject was monitored throughout the study. Any AEs and remedial actions required were recorded. The nature, time of onset, duration, and severity were documented, together with the Investigator's opinion of the relationship to drug administration. Any clinically significant abnormalities found during the course of the study were followed up until they returned to normal or could be clinically explained.
# CYP2D6 = CYP2D6 (Homo sapiens, UniProt P10635); test: In vitro CYP phenotyping and metabolism study, recombinant CYP2D6; format: in vitro ADME
# Description: as §1
# CYP2C9 = CYP2C9 (Homo sapiens, UniProt P11712); test: In vitro CYP phenotyping and metabolism study, recombinant CYP2C9; format: in vitro ADME
# Description: as §1
# plasma protein [4] = conditions: cited from earlier work
# [5] = Mild Hepatic Impairment, read-out: Fraction Unbound, Geometric Mean
# [6] = Mild Hepatic Impairment, read-out: Fraction Unbound, Median
# [7] = Mild Hepatic Impairment, read-out: Unbound Concentration, Arithmetic Mean
# [8] = Mild Hepatic Impairment, read-out: Unbound Concentration, Geometric Mean
# [9] = Mild Hepatic Impairment, read-out: Unbound Concentration, Median
# [10] = Moderate Hepatic Impairment, read-out: Fraction Unbound, Geometric Mean
# [11] = Moderate Hepatic Impairment, read-out: Fraction Unbound, Median
# [12] = Moderate Hepatic Impairment, read-out: Unbound Concentration, Arithmetic Mean
# [13] = Moderate Hepatic Impairment, read-out: Unbound Concentration, Geometric Mean
# [14] = Moderate Hepatic Impairment, read-out: Unbound Concentration, Median
# [15] = Normal Hepatic Function, read-out: Fraction Unbound, Geometric Mean
# [16] = Normal Hepatic Function, read-out: Fraction Unbound, Median
# [17] = Normal Hepatic Function, read-out: Unbound Concentration, Arithmetic Mean
# [18] = Normal Hepatic Function, read-out: Unbound Concentration, Geometric Mean
# [19] = Normal Hepatic Function, read-out: Unbound Concentration, Median
# CYP3A4, sequence (P08684 whole entry): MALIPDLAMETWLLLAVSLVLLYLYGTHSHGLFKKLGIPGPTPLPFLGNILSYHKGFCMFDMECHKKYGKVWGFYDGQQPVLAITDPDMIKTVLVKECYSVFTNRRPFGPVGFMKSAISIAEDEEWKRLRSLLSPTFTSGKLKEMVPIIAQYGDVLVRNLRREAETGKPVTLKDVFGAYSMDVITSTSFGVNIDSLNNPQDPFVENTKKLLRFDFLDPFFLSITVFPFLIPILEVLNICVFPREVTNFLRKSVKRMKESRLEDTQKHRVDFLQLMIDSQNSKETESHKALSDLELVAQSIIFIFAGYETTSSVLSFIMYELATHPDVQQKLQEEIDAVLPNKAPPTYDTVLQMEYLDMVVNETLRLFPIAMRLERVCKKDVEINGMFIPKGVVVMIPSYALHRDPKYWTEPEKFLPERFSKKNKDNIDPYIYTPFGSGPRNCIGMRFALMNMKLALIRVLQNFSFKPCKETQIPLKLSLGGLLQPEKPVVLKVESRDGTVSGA
# CYP2C9, sequence (P11712 whole entry): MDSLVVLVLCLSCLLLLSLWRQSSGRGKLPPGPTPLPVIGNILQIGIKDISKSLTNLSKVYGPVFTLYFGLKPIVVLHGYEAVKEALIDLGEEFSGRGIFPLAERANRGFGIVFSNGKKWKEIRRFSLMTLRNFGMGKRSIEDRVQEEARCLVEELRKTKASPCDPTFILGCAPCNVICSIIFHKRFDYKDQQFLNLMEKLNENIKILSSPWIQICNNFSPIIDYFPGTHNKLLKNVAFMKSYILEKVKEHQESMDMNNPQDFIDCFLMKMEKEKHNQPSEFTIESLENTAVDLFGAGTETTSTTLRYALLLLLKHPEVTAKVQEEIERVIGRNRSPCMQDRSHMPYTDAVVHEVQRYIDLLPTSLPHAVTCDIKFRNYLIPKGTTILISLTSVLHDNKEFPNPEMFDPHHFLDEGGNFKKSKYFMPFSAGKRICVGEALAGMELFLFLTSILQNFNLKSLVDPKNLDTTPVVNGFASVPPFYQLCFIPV
# CYP2D6, sequence (P10635 whole entry): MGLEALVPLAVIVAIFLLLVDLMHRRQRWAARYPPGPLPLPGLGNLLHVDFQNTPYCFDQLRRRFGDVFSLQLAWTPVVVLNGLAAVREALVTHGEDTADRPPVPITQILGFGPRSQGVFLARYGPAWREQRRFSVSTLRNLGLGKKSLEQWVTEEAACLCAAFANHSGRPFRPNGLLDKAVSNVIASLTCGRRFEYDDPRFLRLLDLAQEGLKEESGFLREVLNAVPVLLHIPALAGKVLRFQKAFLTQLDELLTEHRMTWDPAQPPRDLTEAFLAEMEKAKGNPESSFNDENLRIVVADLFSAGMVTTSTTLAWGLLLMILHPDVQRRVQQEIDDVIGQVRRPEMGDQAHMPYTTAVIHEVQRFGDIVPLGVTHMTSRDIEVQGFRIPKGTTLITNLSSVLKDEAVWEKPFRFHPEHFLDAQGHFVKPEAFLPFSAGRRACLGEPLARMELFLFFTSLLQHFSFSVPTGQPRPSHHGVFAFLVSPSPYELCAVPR
smiles,measurement,setting,value
"N#CC1(c2ccc(NC(=O)c3cccnc3NCc3ccncc3)cc2)CCCC1 [Rivoceranib, N-[4-(1-cyanocyclopentyl)phenyl]-2-{[(pyridin-4-yl)methyl]amino} pyridine-3-carboxamide]",rivoceranib consumed at 60 minute incubation,CYP3A4; CYP3A4,more than 60%
same,% Remaining at 60 minute incubation,"CYP3A4; Recombinant CYP3A4, 5 μM",37.6%
same,CLINT,"CYP3A4; Recombinant CYP3A4, 5 μM",0.704 μL/minunte/mg
same,half-life at 5 µM,"CYP3A4; human, Recombinant CYP3A4, 5 μM, read-out: t½",39.4 min
same,"Fraction Unbound, Arithmetic Mean",plasma protein [1]; Mild Hepatic Impairment,2.39%
same,fraction unbound at 4 h,plasma protein [1]; Mild Hepatic Impairment,0.0239 ± 0.00639
same,fraction unbound at 4 h,plasma protein [1]; Moderate Hepatic Impairment,0.0425 ± 0.022
same,fraction unbound at 4 h,plasma protein [1]; Normal Hepatic Function,0.0265 ± 0.0119
same,fraction unbound at 4 h,[2]; [5],0.0232
same,fraction unbound at 4 h,[2]; [6],0.0232
same,concentration at 4 h,[2]; [7],3.78 ng/mL
same,concentration at 4 h,[2]; [8],2.59 ng/mL
same,concentration at 4 h,[2]; [9],2.37 ng/mL
same,fraction unbound at 24 h,"[2]; Mild Hepatic Impairment, read-out: Fraction Unbound, Arithmetic Mean",0.0201
same,fraction unbound at 24 h,[2]; [5],0.0191
same,fraction unbound at 24 h,[2]; [6],0.0174
same,concentration at 24 h,[2]; [7],0.63 ng/mL
same,concentration at 24 h,[2]; [8],0.55 ng/mL
same,concentration at 24 h,[2]; [9],0.65 ng/mL
same,fraction unbound at 4 h,[2]; [10],0.0373
same,fraction unbound at 4 h,[2]; [11],0.0419
same,concentration at 4 h,[2]; [12],4.73 ng/mL
same,concentration at 4 h,[2]; [13],4.52 ng/mL
same,concentration at 4 h,[2]; [14],4.15 ng/mL
same,fraction unbound at 24 h,"[2]; Moderate Hepatic Impairment, read-out: Fraction Unbound, Arithmetic Mean",0.022
same,fraction unbound at 24 h,[2]; [10],0.021
same,fraction unbound at 24 h,[2]; [11],0.021
same,concentration at 24 h,[2]; [12],1.07 ng/mL
same,concentration at 24 h,[2]; [13],0.82 ng/mL
same,concentration at 24 h,[2]; [14],0.82 ng/mL
same,fraction unbound at 4 h,[2]; [15],0.0243
same,fraction unbound at 4 h,[2]; [16],0.0212
same,concentration at 4 h,[2]; [17],4.44 ng/mL
same,concentration at 4 h,[2]; [18],3.62 ng/mL
same,concentration at 4 h,[2]; [19],3.76 ng/mL
same,fraction unbound at 24 h,"[2]; Normal Hepatic Function, read-out: Fraction Unbound, Arithmetic Mean",0.0172
same,fraction unbound at 24 h,[2]; [15],0.0168
same,fraction unbound at 24 h,[2]; [16],0.0155
same,concentration at 24 h,[2]; [17],0.73 ng/mL
same,concentration at 24 h,[2]; [18],0.68 ng/mL
same,concentration at 24 h,[2]; [19],0.69 ng/mL
same,rivoceranib consumed at 60 minute incubation,CYP2B6; CYP2B6,less than 10%
same,% Remaining at 60 minute incubation,"CYP2B6; Recombinant CYP2B6, 5 μM",96.3%
same,CLINT,"CYP2B6; Recombinant CYP2B6, 5 μM",0.020 μL/minunte/mg
same,half-life at 5 µM,"CYP2B6; human, Recombinant CYP2B6, 5 μM, read-out: t½",344 min
same,tolerability,"[3]; 200 mg single dose (freebase), healthy subjects and subjects with mild and moderate hepatic impairment",well tolerated
same,subjects with treatment-emergent adverse events (TEAEs),"[3]; 200 mg single dose, 27 subjects overall, both in the Mild hepatic impairment group",2 (7.4%) subjects
same,"laboratory, ECG, physical examination abnormalities","[3]; 200 mg single dose, all groups","no clinically significant laboratory, ECG, or physical examinations abnormalities"
same,"treatment emergent SAEs, TEAEs leading to discontinuation, deaths","[3]; 200 mg single dose, all groups","No treatment emergent serious adverse events (SAEs), TEAEs leading to discontinuation, or deaths"
same,rivoceranib consumed at 60 minute incubation,CYP2D6; CYP2D6,more than 60%
same,% Remaining at 60 minute incubation,"CYP2D6; Recombinant CYP2D6, 5 μM",34.9%
same,CLINT,"CYP2D6; Recombinant CYP2D6, 5 μM",0.587 μL/minunte/mg
same,half-life at 5 µM,"CYP2D6; human, Recombinant CYP2D6, 5 μM, read-out: t½",47.2 min
same,rivoceranib consumed at 60 minute incubation,CYP2C9; CYP2C9,less than 10%
same,% Remaining at 60 minute incubation,"CYP2C9; Recombinant CYP2C9, 5 μM",90.3%
same,CLINT,"CYP2C9; Recombinant CYP2C9, 5 μM",0.119 μL/minunte/mg
same,half-life at 5 µM,"CYP2C9; human, Recombinant CYP2C9, 5 μM, read-out: t½",234 min
same,plasma protein binding,plasma protein [4],97%
